pIC50: −log10 of the molar value.
Legend:
[1] = system: U2932 cells; assay: Dose-response study of BTK inhibitor in the presence of BCL-2 inhibitor, U2932; format: cell-based; details: Homo sapiens, read-out: Inhibitory activity on cell proliferation U2932 IC50
Description: (§1) The OCI-Ly10 or U2932 cells (20000 cells/well) were seeded into 96-well plates (cell plates), to which the test compound diluted with the medium was added at final concentrations of 0.009 nM to 30000 nM (a final DMSO concentration of 0.3%), and after 96 hours of culture, an Alamar Blue reagent (Thermo Fisher Scientific Inc.) was added. After 3 hours, the fluorescence of excitation wavelength 560 nm/fluorescence wavelength 590 nm was measured and IC50 values of inhibitory activity were determined by setting a compound-free and cell-free well as 100% and a compound-free and cell-containing well as 0%.
(§2) Changes in IC50 values of the BTK inhibitor in the presence of the BCL-2 inhibitor at various concentrations were examined.
From the result obtained for the BCL-2 inhibitor used as a single agent, BCL-2 inhibitor concentrations for three doses were selected for each cancer cell line.

[2] = system: U2932 cells; assay: Cell proliferation suppression test of single agents, U2932 (Alamar Blue, 96 h); format: cell-based, Human; details: Homo sapiens, U2932, single agent, read-out: Inhibitory Activity on cell proliferation IC50 U2932
Description: Human lymphoma cell line U2932 cells (obtained from DSMZ) were cultured in a 5% CO2 incubator using RPMI medium (Roswell Park Memorial Institute medium, Thermo Fisher Scientific Inc.) containing 10% fetal bovine serum (GE Healthcare) and 1% penicillin streptomycin (NACALAI TESQUE, INC.).
as §1

[3] = system: OCI-Ly10 cells; assay: Combined effect of BTK inhibitor and BCL-2 inhibitor by BLISS score, OCI-Ly10; format: cell-based, Human; details: combination with venetoclax, 8×8 matrix, positive = synergistic
Description: The BLISS score is one of the criteria used to evaluate synergistic effects in combination of agents (Borisy et al. Proc. Natl. Acad. Sci. USA., 100(13): 7977-7982 (2003); Griner et al. Proc. Natl. Acad. Sci. USA., 111(6): 2349-54 (2014)). This BLISS score was used to analyze the combined effect of a BTK inhibitor and a BCL-2 inhibitor in terms of proliferation inhibition to OCI-Ly10 cells.
After 96 hours of culture, an Alamar Blue reagent was added, and 3 hours later, fluorescence of excitation wavelength 560 nm/fluorescence wavelength 590 nm was measured. Cell proliferation inhibition rate and viability (100−inhibition rate %) were determined by setting a compound-free and cell-free well as 100% and a compound-free and cell-containing well as 0%.
Theoretical BLISS independence (BLISSin) for each well can be calculated from the following formula when agent A and agent B each are thought to have acted as a single agent (i.e., cell proliferation rate when the concentration of either one compound is 0). G is cell viability.
BLISS score for each well can be derived from a difference between the theoretical BLISSin and a measured value of cell proliferation rate. If the BLISS score is a positive number, it is considered that a synergistic effect is present.
BLISS score=100×(BLISSin−G)

[4] = system: BTK-C481S-mutant OCI-Ly10 cells; assay: Dose-response study of BTK inhibitor in the presence of BCL-2 inhibitor, BTK-C481S-mutant OCI-Ly10; format: cell-based; details: Homo sapiens, read-out: Inhibitory activity on cell proliferation OCI-Ly10 BTK-C481S IC50
Description: (§3) BTK-C481S-mutant OCI-Ly10 cells were produced by point mutation knock-in using the CRISPR-Cas9 system. Cas9 protein (Thermo Fisher Scientific Inc.), guide RNA prepared with GeneArt™ Precision gRNA Synthesis Kit (Thermo Fisher Scientific Inc.), and a single-stranded synthetic oligonucleotide to replace 481st cysteine residue of BTK with a serine residue were introduced into OCI-Ly10 cells by an electroporation method. The resulting modified OCI-Ly10 cells were cultured in the presence of ibrutinib, and the grown cells were used as BTK-C481S-mutant OCI-Ly10 cells. Transduction of the mutation was confirmed by genomic DNA and mRNA sequence analysis.
BTK-C481S-mutant lymphoma cells were used to examine changes in IC50 values of the BTK inhibitor in the presence of various concentrations of BCL-2 inhibitor.
From the results obtained for the BCL-2 inhibitor used as a single agent, BCL-2 inhibitor concentrations for three doses were selected for BTK-C481-mutant OCI-Ly10 cells.

[5] = system: BTK-C481S-mutant OCI-Ly10 cells; assay: Cell proliferation suppression test of single agents, BTK-C481S-mutant OCI-Ly10; format: cell-based, Human; details: Homo sapiens, OCI-Ly10; single agent; read-out: Inhibitory activity on cell proliferation OCI-Ly10 BTK-C481S IC50
Description: as §1, §3
In the same manner as in Test Example 1, IC50 values for each inhibitor single agent were determined.

[6] = system: OCI-Ly10 cells; assay: Cell proliferation suppression test of single agents, OCI-Ly10 (Alamar Blue, 96 h); format: cell-based, Human; details: Homo sapiens, OCI-Ly10, single agent, read-out: Inhibitory Activity on cell proliferation IC50 OCI-Ly10
Description: Human lymphoma cell line OCI-Ly10 cells (obtained from University Health Network) were cultured in a 5% CO2 incubator using IMDM medium (Iscove's Modified Dulbecco's Medium, Thermo Fisher Scientific Inc.) containing 20% fetal bovine serum (GE Healthcare) and 1% penicillin streptomycin (NACALAI TESQUE, INC.).
as §1

[7] = system: OCI-Ly10 cells; assay: Dose-response study of BTK inhibitor in the presence of BCL-2 inhibitor, OCI-Ly10; format: cell-based; details: Homo sapiens, read-out: Inhibitory activity on cell proliferation OCI-Ly10 IC50
Description: as §1, §2

[8] = OCI-Ly10, in the presence of S-55746 10 nM
[9] = OCI-Ly10, in the presence of S-55746 30 nM
[10] = OCI-Ly10, in the presence of S-55746 100 nM
[11] = OCI-Ly10, in the presence of navitoclax 10 nM
[12] = OCI-Ly10, in the presence of navitoclax 30 nM
[13] = OCI-Ly10, in the presence of navitoclax 100 nM
[14] = OCI-Ly10, in the presence of obatoclax mesylate 50 nM
[15] = OCI-Ly10, in the presence of obatoclax mesylate 100 nM
[16] = OCI-Ly10, in the presence of obatoclax mesylate 200 nM
[17] = OCI-Ly10, in the presence of venetoclax 1 nM
[18] = OCI-Ly10, in the presence of venetoclax 3 nM
[19] = OCI-Ly10, in the presence of venetoclax 10 nM
[20] = OCI-Ly10, obatoclax mesylate 0 nM

pIC50 ([4]; OCI-Ly10, S-55746 0 nM): 7.96 | pIC50 [4, 8]: 8.10 | pIC50 [4, 9]: 8.28 | pIC50 [4, 10]: 8.51 | pIC50 [4, 11]: 7.92 | pIC50 [4, 12]: 8.09 | pIC50 [4, 13]: 8.39 | pIC50 [4, 14]: 8.27 | pIC50 [4, 15]: 8.36 | pIC50 [4, 16]: 8.40 | pIC50 [4, 17]: 8.00 | pIC50 [4, 18]: 8.16 | pIC50 [4, 19]: 8.32 | pIC50 ([4]; OCI-Ly10, navitoclax 0 nM): 7.82 | pIC50 [4, 20]: 7.80 | pIC50 ([4]; OCI-Ly10, venetoclax 0 nM): 7.82 | pIC50 [5]: 7.82 | pIC50 [6]: 8.70 | pIC50 ([7]; OCI-Ly10, S-55746 0 nM): 8.68 | pIC50 [7, 8]: 8.89 | pIC50 [7, 9]: 8.96 | pIC50 [7, 10]: 9.22 | pIC50 [7, 11]: 8.85 | pIC50 [7, 12]: 8.96 | pIC50 [7, 13]: 9.10 | pIC50 [7, 14]: 9.05 | pIC50 [7, 15]: 9.05 | pIC50 [7, 16]: 9.05 | pIC50 [7, 17]: 8.82 | pIC50 [7, 18]: 8.82 | pIC50 [7, 19]: 8.89 | pIC50 [7, 20]: 8.92 | pIC50 ([7]; OCI-Ly10, venetoclax 0 nM): 8.68
SMILES: Nc1nc(-c2cccc(-n3ccc4cc(C5CC5)cc(F)c4c3=O)c2CO)c2cc(C3=CCN(C4COC4)CC3)[nH]c2n1 [Compound (I-A), 2-(3-{2-amino-6-[1-(oxetan-3-yl)-1,2,3,6-tetrahydropyridin-4-yl]-7H-pyrrolo[2,3-d]pyrimidin-4-yl}-2-(hydroxymethyl)phenyl)-6-cyclopropyl-8-fluoroisoquinolin-1(2H)-one]
pIC50 ([1]; U2932, S-55746 0 nM): < 4.52 | pIC50 ([1]; U2932, in the presence of S-55746 100 nM): 5.46 | pIC50 ([1]; U2932, in the presence of S-55746 300 nM): 6.32 | pIC50 ([1]; U2932, in the presence of S-55746 1000 nM): 7.66 | pIC50 ([1]; U2932, in the presence of navitoclax 30 nM): 4.92 | pIC50 ([1]; U2932, in the presence of navitoclax 100 nM): 5.71 | pIC50 ([1]; U2932, in the presence of navitoclax 300 nM): 7.64 | pIC50 ([1]; U2932, in the presence of obatoclax mesylate 50 nM): 4.71 | pIC50 ([1]; U2932, in the presence of obatoclax mesylate 100 nM): 4.87 | pIC50 ([1]; U2932, in the presence of venetoclax 3 nM): 5.32 | pIC50 ([1]; U2932, in the presence of venetoclax 10 nM): 5.96 | pIC50 ([1]; U2932, in the presence of venetoclax 100 nM): 7.85 | pIC50 ([1]; U2932, navitoclax 0 nM): 4.55 | pIC50 ([1]; U2932, obatoclax mesylate 0 nM): 4.59 | pIC50 ([1]; U2932, venetoclax 0 nM): 4.87 | pIC50 [2]: 4.90 | BLISS score [3]: positive values
